The values below come from ChEMBL document CHEMBL3046086, “In-silico design, synthesis and evaluation of novel DNA-gyrase B inhibitors” (2013).

Molecules are shown by their SMILES.

The test system of assay [1] is Staphylococcus aureus. Nature of the assay: Antibacterial activity against Staphylococcus aureus assessed as growth inhibition at 1500 uM after 24 hr by agar well diffusion method. The format is functional. Conditions: read-out: IZ. (A growth-free zone around the sample is the usual read-out of agar diffusion tests.)
For assay [2], the system named is Escherichia coli. Nature of the assay: Antibacterial activity against Escherichia coli assessed as growth inhibition at 1500 uM after 24 hr by agar well diffusion method. The format is functional. Conditions: read-out: IZ.

In the case of `Cc1cc(=O)[nH]c2cc(Nc3ncccc3C(=O)O)ccc12`, the zone of inhibition at 1500 µM in assay [1] amounted to 5 mm; in assay [2], 4.2 mm. `Cc1cc(=O)[nH]c2cc(Nc3ccc(C(=O)O)cn3)ccc12`: the zone of inhibition at 1500 µM in assay [1] stood at 3 mm.

In the case of `Cc1cc(=O)[nH]c2cc(Nc3nccnc3C(=O)O)ccc12`, the zone of inhibition at 1500 µM in assay [1] stood at 7.5 mm; in assay [2], 8 mm. As for `Cc1cc(O)nc2cc(N)ccc12`, the zone of inhibition at 1500 µM in assay [1] was 5.5 mm; in assay [2], 4 mm. The like results for `Cc1cc(=O)[nH]c2cc(Nc3ccncc3C(=O)O)ccc12` were, in that order, 9 mm and 7 mm. The like results for `Cc1cc(=O)[nH]c2cc(Nc3ccccc3C(=O)O)ccc12` were, in that order, 8 mm and 7 mm. The like results for `Cc1cc(=O)[nH]c2cc(Nc3ccc(C(=O)O)cc3)ccc12` were, in that order, 13.5 mm and 12.8 mm.

For the compound `O=C(O)c1cn(C2CC2)c2cc(N3CCNCC3)c(F)cc2c1=O` [CIPROFLOXACIN], in assay [1], the zone of inhibition at 1500 µM was found to be 15 mm. Turning to `Cc1cc(=O)[nH]c2cc(Nc3cccc(C(=O)O)c3)ccc12`, the zone of inhibition at 1500 µM in assay [1] and in assay [2] was 7 mm throughout. With `Cc1cc(=O)[nH]c2cc(Nc3cnc(C(=O)O)cn3)ccc12`, the zone of inhibition at 1500 µM was 9 mm in assay [1] and 8.5 mm in assay [2].
